# Test results as given in US11040937B2, “Amide derivative” (TOHOKU UNIVERSITY, priority 2014, dated 2021).
# Tested on: A549 cells
# Assay: Matrix-Invasion assay (Matrigel)
# Assay type: cell-based, human
# Conditions: 10 μmol/L, 48±4 hours, significance level less than 5%
# Description: As a second test for determining whether or not the physiological function of cells induced by the OPN production is inhibited with a test compound, Matrix-Invasion assay was performed. In this assay, cups (inserts) whose bottom was covered with a membrane having φ8 μm pores coated with collagen or laminin (Matrigel, BD Bioscience) that is an extracellular matrix component and a 24-well plate for inserting the inserts were prepared. […]
# Specifically, a fluorescent dye was introduced into A549 cells invading outside the membrane, and then the cells were separated from the membrane to measure their fluorescence intensity. At the same time, a fluorescent dye was introduced into a known number of cells for preparing a calibration curve, and a calibration curve was prepared from their fluorescence intensity. Then, the number of invading cells of a test sample containing an unknown number of cells was determined from the fitted curve. […]
# The cells of human non-small cell lung cancer-derived cell line A549 were suspended in DMEM medium containing 10% FCS and 1% P/S at 1.8×10^5 cells/mL to obtain a cell suspension. […] This day was counted as Day 0 of operation. […]
smiles,measurement,value
"COc1ccc(Oc2cccc(C(=O)CCNC(=O)c3ccc(O)cc3)c2N)cc1 [Compound 6, N-(3-(2-Amino-3-(4-methoxyphenoxy)phenyl)-3-oxopropyl)-4-hydroxybenzamide]",number of invading cells vs control group,significantly inhibited
